Assays:
[1] = Photostability according to Berset et al., Internat. J. Cosmetic Science 18: 167-177 (1996); format: physicochemical; conditions: solution in water/glycerol=7:3 as liquid phase
Description: 209-210° C. […] One equivalent of aq. […] M.p. […] .

[2] = UV absorption spectrum (absorption maximum and extinction E); format: physicochemical; set-up: extinction E: unit not given beside the values; conditions: for extinction E: at absorption maximum
Excerpt: This salt was recrystallized from DMF.
The reaction mixture was concentrated at the rotavap, followed by HV drying. The residue is washed with cyclohexane and then with ethylacetate followed by recrystallization from ethanol.

physchem = conditions: water
[3] = prior-art water-soluble UV-A sunscreen (EP-A 669 323, DE 33 24 735); cited from earlier work

With `CC1=CC(=C(C#N)C#N)C=C(C)N1CCOCCOP(=O)([O-])O.[Na+]` [Example 1, 4-dicyanomethylene-2,6-dimethyl-1,4-dihydropyridine-N-(ethyloxy-ethyloxyphosphate estermonosodium salt)] the photostability [1] was “photostable”, the UV absorption maximum ([2]; UV (water)) was 350 nm and the “extinction E” value ([2]; UV (water)) was 979. For the same compound, the solubility (physchem) was 168 mg/mL.
In the case of `CC1=CC(=C(C#N)C#N)C=C(C)N1CCOS(=O)(=O)[O-].[Na+]` [Example 2, 4-dicyanomethylene-2,6-dimethyl-1,4-dihydropyridine-N-(ethyloxysulfate estermonosodium salt)], the photostability [1] is reported as “photostable”, the UV absorption maximum ([2]; UV (water)) is reported as 352 nm and the “extinction E” value ([2]; UV (water)) is reported as 1261.
Compound `CC1=CC(=C(C#N)C#N)C=C(C)N1CCC[N+](C)(C)CCOCCOCCO.[I-]` [Example 3] has a UV absorption maximum ([2]; UV (ethanol)) of 362 nm.
With `CC1=CC(=C(C#N)C#N)C=C(C)N1CCOCC[n+]1ccccc1` [Example 4, 1-{2-[2-(4-dicyanomethylene-2,6-dimethyl-4H-pyridin-1-yl)-ethoxy]-ethyl}-pyridinium chloride] the UV absorption maximum ([2]; UV (water)) was 352 nm, the “extinction E” value ([2]; UV (water)) was 1149 and the solubility (physchem) was over 200 mg/mL.
In the case of `CC1=CC(=C(C#N)C#N)C=C(C)N1c1cccc(OCCCS(=O)(=O)[O-])c1.[Na+]` [Example 5, 3-[3-(4-dicyanomethylene-2,6-dimethyl-4H-pyridin-1-yl)-phenoxy]propane-1-sulfonic acid], the UV absorption maximum ([2]; UV (water)) is reported as 352 nm and the “extinction E” value ([2]; UV (water)) is reported as 1150.
For `O=S(=O)([O-])c1cc(S(=O)(=O)O)cc2[nH]c(-c3ccc(-c4nc5c(S(=O)(=O)[O-])cc(S(=O)(=O)O)cc5[nH]4)cc3)nc12.[Na+].[Na+]` [disodium phenyldibenzimidazole tetrasulfonate], the absorption maximum [3] is listed as 335 nm and the “extinction value E” value [3] is listed as 745.
For `CC1(C)C2CCC1(CS(=O)(=O)O)C(=O)C2=Cc1ccc(C=C2C(=O)C3(CS(=O)(=O)O)CCC2C3(C)C)cc1` [terephthalylidene dicamphorsulfonic acid], the absorption maximum [3] is given as 345 nm and the “extinction value E” value [3] is given as 866.

Reference: patent US7897779B2, “Ionic UV-A sunscreens and compositions containing them” (DSM IP Assets B.V., priority 2004, dated 2011)
